Reference: patent US11078166B2, “Triazole conjugated ureas, thioureas, carbamates, and reversed carbamates for PSMA-targeted imaging agents and uses thereof” (THE JOHNS HOPKINS UNIVERSITY, priority 2015, dated 2021)
Entries after “also recorded” stand apart in the source; their conditions may differ. Where two headings read alike, the source gives them in different places.

Columns and labels:
PSMA [1] = target: T1, PSMA (Homo sapiens, UniProt Q04609); details: from Chen et al. 2008 and 2011; read-out: Ki value, PSMA (for comparison); cited from earlier work
T1 construct: endogenous in cells; host or cells: LNCaP cell lysate
T1 sequence (Q04609 whole entry): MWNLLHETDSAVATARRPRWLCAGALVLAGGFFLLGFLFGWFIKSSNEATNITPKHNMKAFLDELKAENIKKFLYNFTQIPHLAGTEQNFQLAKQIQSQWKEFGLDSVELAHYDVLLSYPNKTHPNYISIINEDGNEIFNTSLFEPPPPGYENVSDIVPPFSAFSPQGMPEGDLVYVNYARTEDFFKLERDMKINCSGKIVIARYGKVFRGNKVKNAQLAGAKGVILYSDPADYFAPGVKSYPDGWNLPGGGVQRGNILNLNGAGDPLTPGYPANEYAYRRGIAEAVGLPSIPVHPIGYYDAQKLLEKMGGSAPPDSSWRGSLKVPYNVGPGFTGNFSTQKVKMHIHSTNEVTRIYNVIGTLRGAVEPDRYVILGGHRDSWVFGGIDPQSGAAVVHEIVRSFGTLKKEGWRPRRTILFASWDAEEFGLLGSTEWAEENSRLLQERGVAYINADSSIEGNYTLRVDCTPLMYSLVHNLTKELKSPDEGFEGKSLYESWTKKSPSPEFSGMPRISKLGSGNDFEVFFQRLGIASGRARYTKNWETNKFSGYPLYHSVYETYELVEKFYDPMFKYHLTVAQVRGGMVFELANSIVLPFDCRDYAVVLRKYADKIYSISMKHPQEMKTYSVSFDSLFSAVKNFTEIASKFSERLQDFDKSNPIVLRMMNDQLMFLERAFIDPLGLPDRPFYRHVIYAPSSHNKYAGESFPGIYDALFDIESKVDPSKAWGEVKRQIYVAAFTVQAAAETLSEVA

PSMA [2] = target: T1, PSMA; assay: NAALADase assay (fluorescence-based Amplex Red glutamic acid assay), PSMA inhibition; type: biochemical; details: for Ki: LNCaP cell lysates, 4 μM NAAG, Cheng-Prusoff conversion
Protocol: NAALADase Assay (Kozikowski et al., J. Med. Chem. 2004). The binding affinities of compounds YC-88, YC-71 and YC-XY-01 were tested with an established protocol. Briefly, cell lysates of Lymph Node Carcinoma of the Prostate (LNCaP) cell extracts (25 μL) were incubated with the inhibitor (12.5 μL) in the presence of 4 μM N-acetylaspartylglutamate (NAAG) (12.5 μL) at 37° C. for 120 min. The amount of the glutamate released by NAAG hydrolysis was measured by incubating with a working solution (50 μL) of the Amplex Red Glutamic Acid Kit (Life Technologies, Grand Island, N.Y.) at 37° C. for 60 min. Fluorescence was measured with a VICTOR^3V multilabel plate reader (Perkin Elmer Inc., Waltham, Mass.) with excitation at 490 nm and emission at 642 nm. Inhibition curves were determined using semi-log plots and IC50 values were determined at the concentration at which enzyme activity was inhibited by 50%. Assays were performed in triplicate with the entire inhibition study being repeated at least once to confirm affinity and mode of inhibition. Enzyme inhibitory constants (Ki values) were generated using the Cheng-Prusoff conversion. […]. Data analysis was performed using GraphPad Prism version 4.00 for Windows (GraphPad Software, San Diego, Calif.).
PSMA Inhibition Assay. The PSMA binding affinity of YC-88 were determined using a modification of the Amplex Red glutamic acid assay (Chen et al., Biochem. Biophys. Res. Commun. 2009).

[3] = Lipophilicity, octanol-water partition coefficient by shake-flask method; type: physicochemical; details: pH 7.4
Protocol: Lipophilicity Determination. Octanol-water partition coefficients [log P (pH 7.4) values] were determined according to a literature procedure (Banerjee et al., J. Med. Chem. 2010). […] After vigorously shaking the mixture, it was centrifuged at 3,000 rpm for 5 min. Aliquots were removed from the two phases, and the radioactivity was measured in a 1282 Compugamma CS γ-counter, (LKB, Wallac, Turku, Finland).
Lipophilicity. Octanol-water partition coefficient (log P) values were measured by the shake-flask method using 1-octanol and PBS (pH 7.4). The log P of [^18F]YC-88 at pH 7.4 was −3.91.

[4] = Radiation dosimetry: kidney biological clearance half-life and AUC from % ID/g data; type: in vivo, NOD-SCID mice; details: for AUC in kidneys / Biological half-life in kidneys: single exponential fit of kidney % ID/g
Source text: Radiation Dosimetry. […] The simulation analysis and modeling software package SAAM II (The Epsilon Group, Charlottesville, Va.) was used to perform the fits.

Q: For `O=C(O)CC[C@H](NC(=O)N[C@@H](CSCc1ccc(F)cc1)C(=O)O)C(=O)O` [DCFBC], which Ki (PSMA [1]) is on record?
A: 440 pM

Q: For `O=C(O)CCC(NC(=O)NC(CCCCNC(=O)c1ccc(F)cc1)C(=O)O)C(=O)O` (stereo not shown) [DCFBzL], which Ki (PSMA [1]) is on record?
A: 190 pM

Q: What does the source list for `O=C(O)CCC(NC(=O)NC(CCCCNC(=O)CCCCCCC(=O)NC(CCCCNC(=O)CCc1cn(CCF)nn1)C(=O)O)C(=O)O)C(=O)O` (stereo not shown) [YC-71]?
A: Binding affinity to PSMA (in words) (PSMA [2]): high binding affinity to PSMA; Ki (PSMA [2]): 600 pM

Q: Which “Binding affinity to PSMA (in words)” value (PSMA [2]) does the source give for `O=C(O)CCC(NC(=O)NC(CCCCNC(=O)CCc1cn(CCF)nn1)C(=O)O)C(=O)O` (stereo not shown) [YC-88, 2-[3-(1-Carboxy-5-{3-[1-(2-fluoroethyl)-1H-1,2,3-triazol-yl]propanamido}pentyl)ureido]pentanedioic Acid] here?
A: high affinity for PSMA; also recorded: high binding affinity to PSMA

Q: What about the Ki (PSMA [2]) of the same compound?
A: 12900 pM

Q: For `O=C(O)CC[C@H](OC(=O)N[C@@H](CCCCNC(=O)CCc1cn(CCF)nn1)C(=O)O)C(=O)O` [YC-XY-01, (S)-2-((((S)-1-carboxy-5-(3-(1-(2-fluoroethyl)-1H-1,2,3-triazol-4-yl)propanamido)pentyl)carbamoyl)oxy)pentanedioic acid], which “Binding affinity to PSMA (in words)” value (PSMA [2]) is on record?
A: high binding affinity to PSMA

Q: And the Ki (PSMA [2])?
A: 473000 pM

Q: With `O=C(O)CCC(NC(=O)NC(CCCCNC(=O)c1ccc([18F])nc1)C(=O)O)C(=O)O` (stereo not shown) [[^18F]DCFPyL, 2-(3-{1-carboxy-5-[(6-[^18F]fluoropyridine-3-carbonyl)-amino]-pentyl}-ureido)-pentanedioic acid, reference compound] as the compound, how does the “log P (octanol-water partition coefficient)” value ([3]; 1-octanol and PBS) read?
A: −3.27

Q: And the AUC in kidneys [4]?
A: 340.74 % ID/g-h

Q: What about the “Biological half-life in kidneys” value [4] of the same compound?
A: 1.20 h

Q: For `O=C(O)CC[C@H](NC(=O)N[C@@H](CCCCNC(=O)CCc1cn(CC[18F])nn1)C(=O)O)C(=O)O` [[^18F]YC-88, 2-[3-(1-carboxy-5-{3-[1-(2-[^18F]fluoroethyl)-1H-1,2,3-triazol-yl]propanamido}pentyl)ureido]-pentanedioic acid], which logP [3] is on record?
A: -3.91

Q: What about the “AUC ratio (agent/YC-88) in kidneys” value ([4]; mouse, in vivo) of the same compound?
A: 1

Q: And the “Kidney absorbed dose, decrease compared to [^18F]DCFPyL” value ([4]; mouse, in vivo)?
A: ~5 fold

Q: What about the AUC in kidneys [4] of the same compound?
A: 70.7 % ID/g-h

Q: What about the “Biological half-life in kidneys” value [4] of the same compound?
A: 1.52 h
